Measured values from patent US20260001967A1, “SYNTHETIC HEXASACCHARIDES MIMICS OF HEPARIN SHOWING HEPARANASE INHIBITION ACTIVITY” (CENTRO ALTA TECNOLOGIA ISTITUTO DI RICERCHE CHIMICHE E …, priority 2022, published 2026).
Where two headings read alike, the source gives them in different places.

How the values were obtained:
heparanase [1] = biological target: T1, heparanase (Homo sapiens, UniProt Q9Y251); assay: Heparanase inhibition assay based on cleavage of fondaparinux, disaccharide assayed by colorimetry (Hammond); format: biochemical; details: for Inhibition of heparanase: over the concentration range tested
T1 sequence (Q9Y251 158-543 limits assumed): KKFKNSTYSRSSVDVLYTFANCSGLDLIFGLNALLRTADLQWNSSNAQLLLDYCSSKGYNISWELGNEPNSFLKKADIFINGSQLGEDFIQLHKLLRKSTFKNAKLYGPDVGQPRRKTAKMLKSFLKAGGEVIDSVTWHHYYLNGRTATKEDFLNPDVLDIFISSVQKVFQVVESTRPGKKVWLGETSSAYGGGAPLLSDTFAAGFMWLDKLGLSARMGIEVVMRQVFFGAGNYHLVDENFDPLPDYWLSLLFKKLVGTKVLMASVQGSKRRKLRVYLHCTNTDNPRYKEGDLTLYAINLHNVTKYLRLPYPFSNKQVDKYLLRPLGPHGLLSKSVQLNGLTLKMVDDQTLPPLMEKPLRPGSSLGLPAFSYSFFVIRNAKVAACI
T1 sequence (Q9Y251 36-109 limits assumed): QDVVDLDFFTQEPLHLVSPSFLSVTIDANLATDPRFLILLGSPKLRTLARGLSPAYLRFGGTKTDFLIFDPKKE
From the text: To prepare 12 we adopted (Scheme 1) a classical disaccharide building-block approach (C. Tabeur et al., Oligosaccharides corresponding to the regular sequence of heparin: chemical synthesis and interaction with FGF-2. Bioorg. Med. Chem. 1999, 7, 2003-2012) based on the trichloroacetimidate glycosylation method (R. R. Schmidt, W. Kinzy, Adv. Carbohydr. Chem. Biochem. 1992, 50, 21-123). […] The hexasaccharide sequence was completed by reaction under similar conditions with the trichloroacetimidate disaccharide 8 itself classically obtained from 6. […] After saponification to remove the acetyl groups and cleave the methyl esters, preparative HPLC allowed to separate 10 from its β-anomer. […] The glycol-split derivatives were then obtained (Scheme 2). […] The inhibition of heparanase was evaluated using an assay based on the cleavage of the synthetic heparin pentasaccharide fondaparinux (Arixtra®; Aspen). Cleavage of fondaparinux by heparanase, yields a disaccharide that is assayed by colorimetry. The assay was essentially performed as described by Hammond (E. Hammond, C. P. Li, V. Ferro, Development of a colorimetric assay for heparanase activity suitable for kinetic analysis and inhibitor screening, Anal. Biochem. 396 (2010), 112-116, http://doi.10.1016/j.ab.2009.09.007.
Serial dilutions of the compounds and of the reference roneparstat were tested. IC50 values were ultimately determined using GraphPad software.

heparanase [2] = biological target: T1, heparanase; details: cited from earlier work

Row | Molecule | Inhibition of heparanase (heparanase [1]) | also measured
1 | COC1OC(COS(=O)(=O)O)C(OC2OC(C(=O)O)C(OC3OC(COS(=O)(=O)O)C(OC4OC(C(=O)O)C(OC5OC(COS(=O)(=O)O)C(OC6OC(C(=O)O)C(OC)C(O)C6OS(=O)(=O)O)C(O)C5N)C(O)C4O)C(O)C3N)C(O)C2OS(=O)(=O)O)C(O)C1N (stereo not drawn) [Compound 12] | hardly detectable | 
2 | COC1OC(COS(=O)(=O)O)C(OC2OC(C(=O)O)C(OC3OC(COS(=O)(=O)O)C(OC4OC(C(=O)O)C(OC5OC(COS(=O)(=O)O)C(OC6OC(C(=O)O)C(OC)C(O)C6OS(=O)(=O)O)C(O)C5NS(=O)(=O)O)C(O)C4O)C(O)C3NS(=O)(=O)O)C(O)C2OS(=O)(=O)O)C(O)C1NS(=O)(=O)O (stereo not drawn) [Compound 13] | hardly detectable | IC50 (heparanase [1]; Table 1, hexasaccharides, read-out: IC50): > 29.4 µM
3 | COC1OC(COS(=O)(=O)O)C(OC2OC(C(=O)O)C(OC3OC(COS(=O)(=O)O)C(OC4OC(C(=O)O)C(OC5OC(COS(=O)(=O)O)C(OC6OC(C(=O)O)C(OC)C(O)C6OS(=O)(=O)O)C(O)C5NC(C)=O)C(O)C4O)C(O)C3NC(C)=O)C(O)C2OS(=O)(=O)O)C(O)C1NC(C)=O (stereo not drawn) [Compound 16] | hardly detectable | 
4 | GlcN(Ns,6s)-GlcA(gs)-GlcN(Ns,1,6anh) |  | IC50 (heparanase [2]): 2 µg/mL
5 | Roneparstat [reference compound] |  | IC50 (heparanase [1]): 0.006 µg/mL
